This is an account of results in patent publication US20250034161A1, “SPIROCYCLIC COMPOUND AS KRAS-G12C INHIBITOR” (Shanghai Euregen Biopharma Co., Ltd., priority 2020, published 2025).

In one data set the test system is SW837(G12C). The data set can be described thus: Cell selectivity test, proliferation inhibition SW837. The settings on record: Homo sapiens, 72 hours. In kind it is cell-based. The text has this: (§1) • 1. Test purpose: to detect the proliferation inhibition of the test compounds on NCI-H23, NCI-H2122, HCC827, Mia paca2, A549 and SW837 cell lines. • 2. […] No. FND500); Penicillin-streptomycin was purchased from Gibco (Art. No. 15140-122); 0.25% trypsin-ethylenediaminetetraacetic acid digestive juice (Trypsin-EDTA) was purchased from Gibco (Art. No. 25200-072); dimethyl sulfoxide (DMSO) was purchased from Sigma (Art. No. D2650); 96-well cell plate was purchased from Corning (Art. No. 3610); incubator was purchased from NuAire (model number: NU-5700E); Biosafety cabinet was purchased from AuAire (model number: NU-543-600S); Inverted microscope was purchased from Nikon (Art. No. TS-100); Automated cell counter was purchased from Life technologies (model number: Countess II); Microplate reader was purchased from PerkinElmer (model number: Envision); the data processing software was GraphPad Prism 5.0. […]

The test system of the next data set is HCC827(wt). The data set can be described thus: Cell selectivity test, proliferation inhibition HCC827. Type of data set: cell-based. The settings on record: Homo sapiens, 72 hours.
Text: as §1

The next data set relates to Mia paca2(G12C). The data set can be described thus: Cell selectivity test, proliferation inhibition Mia paca2. In kind it is cell-based. The settings on record: Homo sapiens, MIA PaCa-2, 72 hours.
Text: as §1

Data set [1] can be described thus: Plasma protein binding assay (equilibrium dialysis), monkey plasma. In kind it is in vitro ADME. The settings on record: pH 7.4, equilibrium dialysis 5 hours, read-out: Plasma protein binding rate (%) (converted). How it is done:
• 1. Test purpose: to evaluate the protein binding rate of the test compound in human, dog, monkey, rat and mouse plasma by equilibrium dialysis; • 2. […] Experimental methods: • 0.1 mol/L sodium phosphate and 0.15 mol/L sodium chloride buffer with pH 7.4±0.1 was preheated;
Preparation of plasma containing test substance: the test compound was dissolved in DMSO to prepare a 10 mmol/l stock solution. 5 μL of stock solution was taken and diluted with 95 μL of acetonitrile to obtain solution A (0.5 mmol/L). 8 μL of solution A was taken and diluted with 192 μL of 0.1 mol/L sodium phosphate buffer to obtain solution B (0.02 mmol/L). 570 μL of plasma was added into a 96-well plate followed by the addition of 30 μL of solution B. The final concentration was 1 μmol/L with 0.01% DMSO.
The plate was shook at 600 rpm for 10 minutes, covered and stored in a freezer (−20° C.).
T5 sample preparation (in triplicate): the dialysis device was added with 100 μL of buffer on its receiver side and 100 μL of plasma containing the test compound on its doner side. And the dialysis device was then shook at 37° C. and 120 rpm for 5 hours. At the end of culture, 25 μL of plasma containing the test substance was taken from the plasma side and then added to a 96-well plate, followed by the addition of 25 μL of buffer and 200 μL of acetonitrile solution containing internal standard. […]

Another data set relates to NCI-H23 (G12C). The data set can be described thus: Cell selectivity test, proliferation inhibition NCI-H23. Type of data set: cell-based. The settings on record: Homo sapiens, 72 hours.
Text: as §1

A short description of data set [2]: Pharmacokinetics study in mice (IV and PO). In kind it is in vivo. The following applies: ICR male mice. How it is done:
Preparation of 0.5% methyl cellulose: 5 g of methyl cellulose were weighed and dissolved in 1000 mL of purified water.
Preparation of oral formulation: a required amount of the test compound was weighed and dissolved in 0.5% methyl cellulose solution to obtain a suspension or solution of 0.5 mg/mL.
Preparation of intravenous injection formulation: a required amount of test compound was weighed, and dissolved in 0.5 mL of dimethyl sulfoxide to prepare a solution of 4 mg/mL. 0.06 mL of the above solution was taken, and 0.12 mL of polyethylene glycol 15 hydroxystearate (solutol) and 1.02 mL of normal saline were added thereto to obtain a solution of 0.2 mg/mL.
Feeding 4 hours after administration.
Sample Collection: blood was collected via the jugular vein or other suitable vein, and 0.03 mL blood was collected at each time point. Samples were placed into tubes containing ethylenediaminetetraacetic acid dipotassium salt and kept on ice before centrifugation. Within 1 hour after blood collection, the blood samples were centrifuged at 2-8° C. and 6800 g for 6 minutes and stored at −80° C. The time points for blood collection were 0.083, 0.25, 0.5, 1, 2, 4, 8 and 24 hours after intravenous and oral administration.

A further data set deals with A549(G12S). The data set can be described thus: Cell selectivity test, proliferation inhibition A549. Type of data set: cell-based. The settings on record: Homo sapiens, 72 hours.
Text: as §1

The subject of data set [3] is phosphorylation level of ERK in NCI-H358 cells. The data set can be described thus: NCI-H358 pERK inhibitory activity (HTRF phospho-ERK). Type of data set: cell-based. The following applies: Homo sapiens, 1 hour incubation.
Procedure: Test purpose: to detect the inhibitory effect of the test compound on the phosphorylation level of ERK in NCI-H358 cells. • 2. […] Test method:
NCI-H358 cells suspension was seeded at 80 μL per well in a clear 96-well cell culture plate, with 10000 cells each well. The cell culture plate was placed in an incubator and incubated overnight at 37° C. under 5% CO2. After incubation, the cell supernatant was discarded, 80 μL of PRMI1640 medium containing 0.02% serum was added to each well, and the cell culture plate was placed in an incubator and incubated overnight at 37° C., under 5% CO2. The test compound was diluted with 100% DMSO to 4 mmol/L as the first concentration, and then diluted 5-fold to the 8th concentration using a pipette. 2 μL of compound or DMSO (as negative control) was taken and added with 158 μL of cell culture medium. After mixing evenly, 20 μL of the compound solution was taken and added to corresponding cell plate well. […] After incubation, the signals at 615 nm and 665 nm were read using a multi-label analyzer. The percent inhibition was calculated according to the following formula: Ratio=(signal 665 nm/signal 615 nm)×10000; the percent inhibition=(ratio of test compound-ratio of negative control)/(ratio of blank-ratio of negative control)×100%.
The next data set concerns NCI-H2122 (G12C). The data set can be described thus: Cell selectivity test, proliferation inhibition NCI-H2122. Type of data set: cell-based. The following applies: Homo sapiens, 72 hours.
Text: as §1

[4] abbreviates: mouse, plasma, intravenous injection, 1 mg/kg.
The mark [5] stands for this setting: mouse, plasma, oral gavage, 5 mg/kg.

Take `C=CC(=O)N1CCN(c2nc(=O)n(-c3c(C)ccnc3C(C)C)c3nc(-c4c(O)cccc4F)c(F)cc23)[C@@H](C)C1` [AMG510]: the IC50 is 0.285 µM in the data set on SW837(G12C); more than 10 µM with HCC827(wt); 0.0157 µM with Mia paca2(G12C); 0.00755 µM in the data set with NCI-H23 (G12C); more than 10 µM with A549(G12S); 0.0883 µM in data set [3]. This molecule displayed an IC50 with NCI-H2122 (G12C) of 0.027 µM. Besides, in [1], the fraction unbound at 5 h, 1 μmol/L is 0.017. Besides, in data set [2] (oral gavage, 5 mg/kg), the F was 0.33%. Besides, the AUC(0-inf) stood at 227 ng·h/mL in [2] (setting [4]) and 6.12 ng·h/mL in data set [2] (setting [5]). Also, the Cmax in data set [2] (setting [4]) was found to be 623 ng/mL; in data set [2] (setting [5]) it was 7.25 ng/mL. Also, in data set [2] (setting [4]), the clearance was found to be 74.7 mL/min/kg. Also, the half-life in [2] (setting [4]) was 13.2 min; in data set [2] (setting [5]) it was 21.6 min. Moreover, the Vd in data set [2] (mouse, plasma, intravenous injection, 1 mg/kg, read-out: Vz) worked out at 1.42 L/kg.

Regarding `C=C(F)C(=O)N1CCN(c2nc(OC[C@@H]3CCCN3C)nc3c2CCN(c2cccc4cccc(Cl)c24)C3)C[C@@H]1CC#N` [MRTX849], the fraction unbound at 5 h, 1 μmol/L in data set [1] is 0.013.
